Data as given in patent publication US20220015361A1, “COMPOSITIONS COMPRISING HALAUXIFEN AND OTHER HERBICIDES AND METHODS THEREOF” (DOW AGROSCIENCES LLC, priority 2018, published 2022).

Tested on: ERISU (Conyza sumatrensis, Sumatran fleabane)
Assay: greenhouse post-emergence foliar weed control, visual score 0-100 percent
Assay type: in vivo
Conditions: 49 gai/ha
Text: Results in Examples are greenhouse trial results.
Seeds or nutlets of the desired test plant species were planted in a soil matrix prepared by mixing a loam or sandy loam soil (e.g., 28.6 percent silt, 18.8 percent clay, and 52.6 percent sand, with a pH of about 5.8 and an organic matter content of about 1.8 percent) and calcareous grit in an 80 to 20 ratio. The soil matrix was contained in plastic pots with a volume of 1 quart and a surface area of 83.6 cm2. When required to ensure good germination and healthy plants, a fungicide treatment and/or other chemical or physical treatment was applied. The plants were grown for 8-22 days in a greenhouse with an approximate 14 h photoperiod which was maintained at about 29° C. during the day and 26° C. during the night. Nutrients (Peters Excel® 15-5-15 5-Ca 2-Mg and iron chelate) were applied in the irrigation solution as needed and water was added on a regular basis. Supplemental lighting was provided with overhead metal halide 1000-Watt lamps as necessary. The plants were employed for testing when they reached the first through fourth true leaf stage.
Treatments comprised of the acid or esters of halauxifen-methyl (methyl 4-amino-3-chloro-6-(4-chloro-2-fluoro-3-methoxyphenyl)picolinate), each formulated as an SC (suspension concentrate), and various herbicidal components alone and in combination. A form of the compound of Formula I were applied on an acid equivalent basis.
Treatment requirements were calculated based upon the rates being tested, the concentration of active ingredient or acid equivalent in the formulation, and a 12 mL application volume at a rate of 187 L/ha.
For treatments comprised of formulated and technical compounds, weighed amounts of the technical materials were placed individually in 25 mL glass vials and dissolved in a volume of 97:3 v/v acetone/DMSO to obtain 12× stock solutions, and measured amounts of the formulated compounds were placed individually in 25 mL glass vials and diluted in a volume of 1.5% (v/v) crop oil concentrate or water to obtain 12× stock solutions. […] As required, additional water and/or 97:3 v/v acetone/DMSO was added to individual application solutions so that the final acetone and DMSO concentrations of the application solutions being compared were 8.1% and 0.25%, respectively.
All stock solutions and applications solutions were visually inspected for compound compatibility prior to application. Spray solutions were applied to the plant material with an overhead Mandel track sprayer equipped with an 8002E nozzle calibrated to deliver 187 L/ha over an application area of 0.503 m2 at a spray height of 18 to 20 inches (46 to 50 cm) above average plant canopy height. Control plants were sprayed in the same manner with the solvent blank.
The treated plants and control plants were placed in a greenhouse as described above and watered by sub-irrigation to prevent wash-off of the test compounds. […]
Table 1 illustrates weed control for foliar applications of compositions comprising halauxifen-methyl+2,4-D-dimethylammonium (2,4-D-DMA)+saflufenacil on various broadleaf weeds. […] The compositions disclosed herein can be used in burndown and fallow crop applications or in herbicide tolerant crops. These compositions can be used for broad-spectrum control of broadleaf weeds including, but not limited to, ALS, auxinic, HPPD, PPO, saflufenacil and glyphosate resistant broadleaf weeds. The compositions disclosed herein can have utility in AAD1 and AAD12 monocot and dicot crops whereby there is crop tolerance to all 3 modes of action, providing growers with a solution to control susceptible and resistant broadleaf weeds, as well as to delay the development of resistance by the use of 3 modes of action product. The compositions disclosed herein can be used in non-crop and R&P/IVM situations, post directed in perennial crops, and potentially across many crops where there is tolerance to all 3 modes of action.

CC(C)N(C)S(=O)(=O)NC(=O)c1cc(-n2c(=O)cc(C(F)(F)F)n(C)c2=O)c(F)cc1Cl [saflufenacil, 2-chloro-5-[3,6-dihydro-3-methyl-2,6-dioxo-4-(trifluoromethyl)-1(2H)-pyrimidinyl]-4-fluoro-N-[[methyl(1-methylethyl)amino]sulfonyl]benzamide]
Chem 2 Actual Mean % Weed Control (Trial 1, ERISU, 17DAA): 52.50% | Chem 2 Actual Mean % Weed Control (Trial 1, ERISU, 28DAA): 66.25% | Chem 2 Actual Mean % Weed Control (Trial 1, ERISU, 43DAA): 77.50% | Chem 2 Actual Mean % Weed Control (Trial 2, ERISU, 17DAA): 66.25% | Chem 2 Actual Mean % Weed Control (Trial 2, ERISU, 28DAA): 97.50% | Chem 2 Actual Mean % Weed Control (Trial 2, ERISU, 43DAA): 98.25%
